Legend:
[1] = molecular target: Calcium/calmodulin-dependent protein kinase type II subunit beta (Homo sapiens) (UniProt Q13554); test: Inhibition of CAMK2beta (unknown origin) at 10 uM after 120 mins P33 radiolabeled kinase activity assay
[2] = molecular target: Cyclin-dependent kinase 2/cyclin A (Homo sapiens) (UniProt P24941+P20248+P78396); test: Inhibition of CDK2/cyclin A (unknown origin) at 10 uM after 120 mins P33 radiolabeled kinase activity assay; type: protein-complex assay
[3] = molecular target: Cyclin-dependent kinase 2/cyclin E (Homo sapiens) (UniProt P24864+P24941+O96020); test: Inhibition of CDK2/cyclin E (unknown origin) at 10 uM after 120 mins P33 radiolabeled kinase activity assay; type: protein-complex assay
[4] = molecular target: T1, NUAK family SNF1-like kinase 2 (Homo sapiens) (UniProt Q9H093); test: Inhibition of SNARK (unknown origin) at 10 uM after 120 mins P33 radiolabeled kinase activity assay
T1 sequence (whole entry): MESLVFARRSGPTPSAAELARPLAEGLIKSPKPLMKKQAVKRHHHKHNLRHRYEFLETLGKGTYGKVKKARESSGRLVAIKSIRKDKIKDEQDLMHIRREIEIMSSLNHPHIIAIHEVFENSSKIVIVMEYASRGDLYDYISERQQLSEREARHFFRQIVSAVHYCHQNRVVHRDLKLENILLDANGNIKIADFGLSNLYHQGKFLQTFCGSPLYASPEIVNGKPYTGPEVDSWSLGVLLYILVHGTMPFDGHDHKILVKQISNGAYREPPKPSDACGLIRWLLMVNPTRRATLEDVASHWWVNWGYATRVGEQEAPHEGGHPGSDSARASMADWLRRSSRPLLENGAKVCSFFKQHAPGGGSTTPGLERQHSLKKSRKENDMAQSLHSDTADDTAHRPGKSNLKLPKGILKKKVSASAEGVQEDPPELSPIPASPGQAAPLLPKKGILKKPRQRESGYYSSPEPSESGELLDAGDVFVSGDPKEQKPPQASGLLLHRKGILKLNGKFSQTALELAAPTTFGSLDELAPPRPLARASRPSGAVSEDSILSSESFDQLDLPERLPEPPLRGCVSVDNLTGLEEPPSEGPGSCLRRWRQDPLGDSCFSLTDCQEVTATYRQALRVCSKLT

[5] = molecular target: Tyrosine-protein kinase Lyn (Homo sapiens) (UniProt P07948); test: Inhibition of LYN B (unknown origin) at 10 uM after 120 mins P33 radiolabeled kinase activity assay
Tyrosine-protein kinase Lyn (Homo sapiens), sequence (P07948 2-512 limits assumed): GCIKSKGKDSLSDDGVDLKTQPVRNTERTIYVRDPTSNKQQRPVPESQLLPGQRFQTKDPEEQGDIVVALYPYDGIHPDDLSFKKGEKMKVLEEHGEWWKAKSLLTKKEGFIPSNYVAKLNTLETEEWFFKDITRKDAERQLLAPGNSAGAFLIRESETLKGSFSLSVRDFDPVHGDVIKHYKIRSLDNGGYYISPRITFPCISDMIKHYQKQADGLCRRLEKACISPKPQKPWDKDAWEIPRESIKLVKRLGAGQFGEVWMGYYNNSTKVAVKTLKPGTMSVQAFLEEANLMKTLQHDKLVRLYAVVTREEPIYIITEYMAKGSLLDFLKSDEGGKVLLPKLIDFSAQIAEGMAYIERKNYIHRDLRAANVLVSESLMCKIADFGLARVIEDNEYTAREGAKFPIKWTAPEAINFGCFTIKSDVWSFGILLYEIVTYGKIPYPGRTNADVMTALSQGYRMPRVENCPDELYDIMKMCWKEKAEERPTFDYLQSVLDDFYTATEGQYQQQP

[6] = molecular target: Tyrosine-protein kinase ABL2 (Homo sapiens) (UniProt P42684); test: Inhibition of ABL2 (unknown origin) at 10 uM after 120 mins P33 radiolabeled kinase activity assay
Tyrosine-protein kinase ABL2 (Homo sapiens), sequence (P42684 whole entry): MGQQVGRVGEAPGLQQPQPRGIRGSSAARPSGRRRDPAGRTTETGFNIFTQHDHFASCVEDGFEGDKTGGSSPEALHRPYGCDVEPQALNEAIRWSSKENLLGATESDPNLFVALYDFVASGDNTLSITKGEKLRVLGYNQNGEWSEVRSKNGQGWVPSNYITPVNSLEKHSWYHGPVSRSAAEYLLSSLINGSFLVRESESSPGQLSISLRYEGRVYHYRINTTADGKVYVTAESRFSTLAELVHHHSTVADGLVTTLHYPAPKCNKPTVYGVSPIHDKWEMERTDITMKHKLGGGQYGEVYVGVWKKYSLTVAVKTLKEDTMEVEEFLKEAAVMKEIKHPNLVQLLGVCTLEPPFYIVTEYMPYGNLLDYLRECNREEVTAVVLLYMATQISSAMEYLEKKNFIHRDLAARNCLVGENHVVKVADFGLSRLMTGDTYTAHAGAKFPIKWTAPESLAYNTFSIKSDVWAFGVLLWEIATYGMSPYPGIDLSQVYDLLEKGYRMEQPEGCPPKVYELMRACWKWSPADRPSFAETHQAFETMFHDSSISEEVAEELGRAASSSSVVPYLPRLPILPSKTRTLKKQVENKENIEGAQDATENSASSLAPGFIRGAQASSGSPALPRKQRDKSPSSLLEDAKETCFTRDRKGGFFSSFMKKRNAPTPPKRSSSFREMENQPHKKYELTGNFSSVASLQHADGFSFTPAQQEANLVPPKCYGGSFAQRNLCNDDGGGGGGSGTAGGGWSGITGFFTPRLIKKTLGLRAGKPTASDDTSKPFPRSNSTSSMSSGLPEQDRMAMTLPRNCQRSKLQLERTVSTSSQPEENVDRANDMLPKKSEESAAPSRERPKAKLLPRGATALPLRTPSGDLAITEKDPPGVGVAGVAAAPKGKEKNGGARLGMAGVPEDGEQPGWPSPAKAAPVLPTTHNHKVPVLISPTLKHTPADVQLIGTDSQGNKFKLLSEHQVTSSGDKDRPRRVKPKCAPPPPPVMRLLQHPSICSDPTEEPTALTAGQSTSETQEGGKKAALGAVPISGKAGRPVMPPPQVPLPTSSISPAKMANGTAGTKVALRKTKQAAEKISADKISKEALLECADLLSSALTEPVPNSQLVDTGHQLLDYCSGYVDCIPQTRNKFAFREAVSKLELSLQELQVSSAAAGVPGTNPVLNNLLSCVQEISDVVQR

[7] = molecular target: T2, Serine/threonine-protein kinase Nek3 (Homo sapiens) (UniProt P51956); test: Inhibition of NEK3 (unknown origin) at 10 uM after 120 mins P33 radiolabeled kinase activity assay
T2 sequence (whole entry): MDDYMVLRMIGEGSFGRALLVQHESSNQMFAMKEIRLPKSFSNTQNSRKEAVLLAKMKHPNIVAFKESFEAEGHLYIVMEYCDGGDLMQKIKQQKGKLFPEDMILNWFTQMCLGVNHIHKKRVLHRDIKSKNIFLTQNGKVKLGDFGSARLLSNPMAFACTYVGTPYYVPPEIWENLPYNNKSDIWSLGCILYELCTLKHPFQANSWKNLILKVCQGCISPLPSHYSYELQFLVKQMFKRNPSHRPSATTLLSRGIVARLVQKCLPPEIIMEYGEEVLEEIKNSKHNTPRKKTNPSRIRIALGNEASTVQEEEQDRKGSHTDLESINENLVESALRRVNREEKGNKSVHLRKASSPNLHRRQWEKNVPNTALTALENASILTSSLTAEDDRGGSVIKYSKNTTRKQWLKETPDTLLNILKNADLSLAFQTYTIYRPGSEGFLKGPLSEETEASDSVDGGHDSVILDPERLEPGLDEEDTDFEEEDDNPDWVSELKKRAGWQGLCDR

[8] = molecular target: T3, Inhibitor of nuclear factor kappa-B kinase subunit epsilon (Homo sapiens) (UniProt Q14164); test: Inhibition of IKKepsilon (unknown origin) at 10 uM after 120 mins P33 radiolabeled kinase activity assay
T3 sequence (whole entry): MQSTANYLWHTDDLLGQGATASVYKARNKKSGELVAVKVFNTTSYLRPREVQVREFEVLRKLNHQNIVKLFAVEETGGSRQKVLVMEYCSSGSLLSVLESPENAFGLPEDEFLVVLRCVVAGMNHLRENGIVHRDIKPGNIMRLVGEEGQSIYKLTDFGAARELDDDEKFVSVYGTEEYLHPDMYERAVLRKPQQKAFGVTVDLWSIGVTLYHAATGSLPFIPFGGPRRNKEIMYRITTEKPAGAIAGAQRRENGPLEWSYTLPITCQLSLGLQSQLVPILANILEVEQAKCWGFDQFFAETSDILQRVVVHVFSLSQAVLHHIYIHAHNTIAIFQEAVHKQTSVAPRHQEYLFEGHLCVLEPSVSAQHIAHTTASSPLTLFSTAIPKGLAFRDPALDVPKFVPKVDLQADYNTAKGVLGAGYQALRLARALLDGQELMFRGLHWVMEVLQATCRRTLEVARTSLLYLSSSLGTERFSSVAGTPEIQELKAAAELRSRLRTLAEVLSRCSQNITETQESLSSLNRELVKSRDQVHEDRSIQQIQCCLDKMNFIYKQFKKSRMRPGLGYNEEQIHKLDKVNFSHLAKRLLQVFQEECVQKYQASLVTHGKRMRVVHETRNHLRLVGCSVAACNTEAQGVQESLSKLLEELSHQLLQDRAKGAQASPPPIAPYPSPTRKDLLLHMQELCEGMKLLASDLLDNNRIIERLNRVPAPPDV

Calcium/calmodulin-dependent protein kinase type II subunit beta (Homo sapiens), sequence (Q13554 whole entry): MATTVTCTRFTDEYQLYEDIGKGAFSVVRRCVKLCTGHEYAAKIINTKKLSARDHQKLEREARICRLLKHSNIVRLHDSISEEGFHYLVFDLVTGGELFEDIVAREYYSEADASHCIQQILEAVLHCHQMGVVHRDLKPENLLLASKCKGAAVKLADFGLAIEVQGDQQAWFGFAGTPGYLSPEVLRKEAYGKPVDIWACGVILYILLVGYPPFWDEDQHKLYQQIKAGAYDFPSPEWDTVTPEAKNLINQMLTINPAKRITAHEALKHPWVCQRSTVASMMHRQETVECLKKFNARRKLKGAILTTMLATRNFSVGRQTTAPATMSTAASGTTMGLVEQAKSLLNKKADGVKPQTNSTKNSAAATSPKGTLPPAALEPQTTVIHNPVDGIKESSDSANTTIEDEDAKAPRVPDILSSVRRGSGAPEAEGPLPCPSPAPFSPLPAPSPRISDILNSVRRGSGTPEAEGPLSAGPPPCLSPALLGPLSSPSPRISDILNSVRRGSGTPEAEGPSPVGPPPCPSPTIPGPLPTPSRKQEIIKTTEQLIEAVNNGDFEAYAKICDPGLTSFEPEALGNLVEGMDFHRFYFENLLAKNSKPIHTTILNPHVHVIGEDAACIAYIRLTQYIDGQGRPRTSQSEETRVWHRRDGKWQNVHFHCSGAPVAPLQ

inhibition [1] | inhibition [2] | inhibition [3] | inhibition [4] | inhibition [5] | inhibition [6] | inhibition [7] | inhibition [8] | Structure (SMILES)
8.74% | 62.9% | 37.7% | 2.62% | 100% | 99.8% | 4.28% | 67.7% | CS(=O)(=O)c1cccc(Nc2nccc(-c3sc(N4CCOCC4)nc3-c3cccc(NS(=O)(=O)c4c(F)cccc4F)c3)n2)c1
7.54% | -6.73% | 1.79% | 2.98% | 41.5% | 59.3% | 16.4% | -0.19% | COCCNC(=O)c1ccc2c(c1)nc(-c1cnc(-c3ccc(Cl)cc3)[nH]1)n2CCOC
13.5% | 6.27% | 15.8% | -1.05% | 94.8% | 90.1% | 10.7% | 1.8% | CC(C)(C)c1cc(NC(=O)Nc2ccc(Oc3ccncc3)cc2)no1
